Patent US10646442B2, “Liposome composition and method for producing same” (FUJIFILM Corporation, priority 2014, dated 2020)
Counter-ions that a name gives are not always drawn.

Key:
[1] = Retentivity in blood (free pemetrexed concentration in blood plasma); assay type: in vivo; conditions: mouse, intravenous, 6 mg/kg in terms of drug amount, tail vein injection, male C3H mice
Protocol: Further, the liposome composition of Example 10 at a dose of 6 mg/kg in terms of drug amount was administered via tail vein injection to 8-week old male C3H mice under the non-fasting conditions. Blood was collected at 15 minutes, 1 hour, 4 hours, and 24 hours after the administration was completed, and the free pemetrexed concentration in blood plasma was quantified to calculate a T1/2.

[2] = tested on: Capan-1 (human pancreatic cancer cell line); assay: In vitro cancer cell growth inhibition; assay type: cell-based; conditions: Capan-1, cultured 144 hours, Luminescent Cell Viability Assay, read-out: IC50 (drug effect concentration that inhibits 50% of cancer cell growth)
Protocol: 2×10^3 cells/[…]/well of Capan-1 (human pancreatic cancer cell line) were seeded onto a 96-well plate. Subsequently, a free drug (gemcitabine hydrochloride) solution, and a drug encapsulated in the liposome compositions of Example 4 and Comparative Examples 4 and 5 were added at each concentration, and cultured until after 144 hours. The cell viability was calculated from the amount of luminescence obtained by a Luminescent Cell Viability Assay after the completion of the culture. In addition, a drug effect concentration (IC50) that inhibits 50% of cancer cell growth was determined.

[3] = reference value for free drug in mice; not among the administered groups; cited from earlier work

Row | Structure (SMILES) | half-life [1] | IC50 [2] | T1/2 of free gemcitabine in mice [3]
1 | Nc1nc2[nH]cc(CCc3ccc(C(=O)N[C@@H](CCC(=O)O)C(=O)O)cc3)c2c(=O)[nH]1 [drug aqueous solution, pemetrexed disodium heptahydrate] | 2 h | – | –
2 | Nc1ccn([C@@H]2O[C@H](CO)[C@@H](O)C2(F)F)c(=O)n1 [free drug, gemcitabine hydrochloride] | – | 7 nM | 0.7 h
